The test system of series [1] is low dosed STZ induced diabetic rats. The series is described as follows: Antihyperglycaemic activity in low dosed streptozotocin induced diabetic rats (STZ). Type of series: in vivo, rat. The following applies: low dosed STZ diabetic rats, compounds 100 mg/kg, Januvia 50 mg/kg. How it is done:
(§1) The test compounds and standard antidiabetic drug Januvia were prepared in 1.0% freshly prepared Gum acacia.
Assessment of Test Compounds for Antihyperglycaemic Activity in Low Dosed Streptozotocin Induced Diabetic Rats—
Induction of Diabetes in Rats:
Overnight starved male albino rats of Sprague Dawley strain were used and Diabetes was induced in the animals by single intraperitoneal injection of Streptozotocin at 60 mg/kg body weight dose prepared in 0.1M citrate buffer (pH 4.5). Fasting blood glucose level was measured by using a Glucometer (ACCU-CHEK II; Roche Diagnostics, USA) after 48 hours and animals showing blood glucose level above 300 mg/di were considered as diabetic.
The diabetic animals were divided into four groups (Group 1 to 4) each consisting 6 rats. Group 1 received 0.4 ml vehicle (1% gum acacia). Group 2 received the test compound 5 at an oral dose of 100 mg/kg/body weight. Group 3 was given compound 6 at an oral dose of 100 mg/kg/body weight. The standard antidiabetic drug Januvia was given to the animals of Group 4 at an oral dose of 50 mg/kg body weight. […] Food but not water was withheld from the cages during the course of experimentation. Percent hyperglycemic activity was determined by comparing the AUC (area under curve) of experimental groups with that of the vehicle treated control group.
(§2) Quantitative glucose tolerance of each animal was calculated by the area under the curve (AUC) method using Prism Software. The area under the curve of the control group and the experimental group was compared to determine the percent antihyperglycaemic activity. Statistical comparisons were performed by one-way analysis of variance (ANOVA), followed by Dunnett's multiple range test (DMRT). The results were considered statistically significant if the ‘p’ values were 0.05 or less. Results were expressed as mean±SEM.

Series [2] concerns sucrose challenged STZ induced diabetic rats. The series is described as follows: Antihyperglycaemic activity in sucrose challenged streptozotocin (STZ)-induced diabetic rats (STZ-S). Type of series: in vivo, rat. The note with it: compounds 100 mg/kg, Januvia 50 mg/kg. How it is done: The test compounds and standard antidiabetic drug Januvia were prepared in 1.0% freshly prepared Gum acacia. Assessment of Test Compounds for Antihyperglycaemic Activity in Sucrose Challenged Streptozotocin STZ-Induced Diabetic Rats— Induction of Diabetes in Rats: Overnight starved male albino rats of Sprague Dawley strain were used and Diabetes was induced in the animals by single intraperitoneal injection of Streptozotocin at 60 mg/kg body weight dose prepared in 0.1M citrate buffer (pH 4.5). Fasting blood glucose level was measured by using a Glucometer (ACCU-CHEK II; […] Grouping and Treatment: […] All the diabetic animals were again divided into groups with five animals in each group. Animals of one group were regarded as the control group (orally administered 1% gum acacia) and the others were treated as the experimental groups. […] Animals of the control group were given an equal amount of 1.0% gum acacia. The standard antidiabetic drug Januvia was given to the animals at an oral dose of 50 mg/kg body weight. […] Food but not water was withheld from the cages during the course of experimentation. Percent hyperglycemic activity was determined by comparing the AUC (area under curve) of experimental groups with that of the vehicle treated control group. Quantitative glucose tolerance of each animal was calculated by the area under the curve (AUC) method using Prism Software. The area under the curve of the control group and the experimental group was compared to determine the percent antihyperglycaemic activity. Statistical comparisons were performed by one-way analysis of variance (ANOVA), followed by Dunnett's multiple range test (DMRT). […] Results were expressed as mean±SEM.

For series [3], the system named is sucrose loaded normoglycaemic rats. As to the kind of experiment: Antihyperglycaemic activity on sucrose loaded normoglycaemic rats (SLM). Type of series: in vivo, rat. The following applies: sucrose loaded normoglycaemic rats, compounds 100 mg/kg, Januvia 50 mg/kg; for Blood Glucose Profile 0 min: 0 min (fasting baseline); for Blood Glucose Profile 120 min: 120 min post sucrose. On the procedure:
as §1
Assessment of Test Compounds for Antihyperglycaemic Activity on Sucrose Loaded Normoglycaemic Rats—
In order to search towards the antidiabetic activity, synthetic compounds were preliminary evaluated for their effect on glucose tolerance in normal rats. It is an indirect effect of measuring antihyperglycaemic activity. Male albino rats of Wistar strain of body weight 160±20 g were selected for this study. The blood glucose of each animal was checked by glucometer using glucostrips (Accu-check) after 16 hours starvation. Animals showing blood glucose between 60 to 80 mg/dl (3.33 to 4.44 mM) were divided into groups of five to six animals in each. Rats of experimental group were administered suspension of the desired test compound orally (made in 1.0% gum acacia). The standard dose decided for Synthetic compounds is 100 mg/kg body weight. Animals of control group were given an equal amount of 1.0% gum acacia. A sucrose load (10.0 g/kg) was given to each animal orally exactly after 30 min post administration of the test sample/vehicle. Blood glucose profile of each rat was again determined at 30, 60, 90 and 120 min post administration of sucrose by glucometer. Food but not water was withheld from the cages during the course of experimentation. Quantitative glucose tolerance of each animal was calculated by area under curve (AUC) method using Prism Software. Comparing the AUC of experimental and control groups determined the percentage antihyperglycaemic activity. Statistical comparison was made by Dunnett's test.
as §2

Series [4] addresses T1, human recombinant PTP1B enzyme (Homo sapiens, UniProt P18031).
T1 construct: purchased Enzo Life Sciences, USA BML-AK 822
T1 sequence (P18031 1-322 limits assumed): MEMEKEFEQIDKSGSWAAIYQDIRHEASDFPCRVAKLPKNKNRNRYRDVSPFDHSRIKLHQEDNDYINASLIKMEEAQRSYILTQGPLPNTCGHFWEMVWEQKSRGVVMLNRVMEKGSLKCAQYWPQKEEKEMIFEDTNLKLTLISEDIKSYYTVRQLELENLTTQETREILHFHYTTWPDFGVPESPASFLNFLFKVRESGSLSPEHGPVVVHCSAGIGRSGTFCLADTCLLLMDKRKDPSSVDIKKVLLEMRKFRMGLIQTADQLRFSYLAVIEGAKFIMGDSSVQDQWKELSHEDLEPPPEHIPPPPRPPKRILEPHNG
The series is described as follows: Protein tyrosine phosphatase-1B assay (colorimetric kit BML-AK 822). The note with it: read-out: % Inhibition (PTP-1B). Type of series: biochemical. On the procedure: Assay was done according to the Kit manufacturers protocol, in brief the reaction was carried out in 96 well flat bottomed microtiter plate by the addition of assay buffer, solution of test compounds and diluted PTP1B enzyme. Enzyme reaction was initiated by addition of 50 μl of warmed 2× substrate then incubated the plate at 30° C. for 30 min. After incubation for 30 min. Reaction was terminated by addition of 25 μl of biomol red reagent and mixed thoroughly by repeated pipetting. […] Volumes and dilution of other component were accordingly as instructed in the manual provided in the kit. PTP1B phosphatase acting on the phosphopeptide substrate and release phosphate. The detection of free phosphate released is based on classic Malachite green assay. After adding biomol red to reaction wells after 30 minutes of incubation as described earlier the plate was incubated for another 20 min to develop the colour. Absorbance was recorded at 620 nm. on a microplate reader.

[5] abbreviates: 0 min pre treatment (fasting baseline).
Where [6] appears, read: Table 5, evaluated at 10 μM concentration.

Where two headings read alike, the source gives them in different places.

`N[C@@H](CC(=O)N1CCn2c(nnc2C(F)(F)F)C1)Cc1cc(F)c(F)cc1F` [Januvia, reference compound]: the “Blood Glucose Profile 0 min (Pre treatment)” value in series [1] (setting [5]) was 341.4 ± 3.53 mg/dL; in series [2] (setting [5]), 222.3 ± 16.2 mg/dL. The “Blood Glucose Profile 30 min (Post treatment)” value in series [1] (30 min) worked out at 445.8 ± 13.0 mg/dL; in series [2] (30 min), 455.0 ± 14.2 mg/dL. Besides, the “Blood Glucose Profile 60 min (Post treatment)” value in series [1] (60 min) was determined as 497.4 ± 11.2 mg/dL; in series [2] (60 min) it was 519.8 ± 16.0 mg/dL. Besides, the “Blood Glucose Profile 90 min (Post treatment)” value was 473.4 ± 11.2 mg/dL in series [1] (90 min) and 469.3 ± 9.40 mg/dL in series [2] (90 min). In addition, the “Blood Glucose Profile 120 min (Post treatment)” value in series [1] (120 min) is 392.0 ± 11.8 mg/dL; in series [2] (120 min) it was 439.3 ± 14.2 mg/dL. In addition, the figures for the “Blood Glucose Profile 180 min (Post treatment)” value in series [1] (180 min) and in series [2] (180 min) were 348.2 ± 16.7 mg/dL and 377.6 ± 10.1 mg/dL, respectively. In addition, the “Blood Glucose Profile 240 min (Post treatment)” value came to 300.4 ± 14.7 mg/dL in series [1] (240 min) and 359.5 ± 10.1 mg/dL in series [2] (240 min). Further, the “Blood Glucose Profile 300 min (Post treatment)” value in series [1] (300 min) turned out to be 255.0 ± 16.9 mg/dL; in series [2] (300 min), 337.6 ± 8.18 mg/dL. For the same molecule, the entries for the “Blood Glucose Profile 1440 min (Post treatment)” value in series [1] (1440 min) and in series [2] (1440 min) were 484.4 ± 10.7 mg/dL and 394.6 ± 8.34 mg/dL, respectively. Moreover, in series [1] (0-5 h AUC, oral), the “% Antihyperglycaemic activity STZ 0-5 h AUC” value turned out to be 28.2%. Moreover, the “% Antihyperglycaemic activity STZ 0-24 h AUC” value in series [1] (0-24 h AUC, oral) amounted to 27.4%. Further, the “% Antihyperglycaemic activity STZ-S 0-5 h AUC” value in series [2] (0-5 h AUC, oral) worked out at 21.8%. Further, in series [2] (0-24 h AUC, oral), the “% Antihyperglycaemic activity STZ-S 0-24 h AUC” value stood at 23.8%. Besides, the “Blood Glucose Profile 0 min” value in series [3] (mean ± S.E.) is 66.3 ± 3.12 mg/dL; in series [3] (mean ± S.E., listed as januvia), 66.2 ± 0.73 mg/dL. Further, the “Blood Glucose Profile 30 min” value in series [3] (30 min post sucrose, mean ± S.E.) was found to be 114.0 ± 8.21 mg/dL. The “Blood Glucose Profile 60 min” value in series [3] (60 min post sucrose, mean ± S.E.) turned out to be 104.8 ± 5.70 mg/dL. The “Blood Glucose Profile 90 min” value in series [3] (90 min post sucrose, mean ± S.E.) was found to be 112.0 ± 7.30 mg/dL. In addition, the “Blood Glucose Profile 120 min” value in series [3] (mean ± S.E.) was determined as 115.0 ± 7.67 mg/dL; in series [3] (mean ± S.E., listed as januvia), 115.0 ± 7.67 mg/dL. The “% Antihyperglycaemic activity SLM” value in series [3] (AUC vs control, oral) was 35.0%.

A word on the inhibition: it is the percentage by which the read-out fell short of the control. As for `Cc1ccc(C(=O)Nc2ccc(S(=O)(=O)O)c3cc(S(=O)(=O)O)cc(S(=O)(=O)O)c23)cc1NC(=O)c1cccc(NC(=O)Nc2cccc(C(=O)Nc3cc(C(=O)Nc4ccc(S(=O)(=O)O)c5cc(S(=O)(=O)O)cc(S(=O)(=O)O)c45)ccc3C)c2)c1` [Standard Suramin, suramin, reference compound], the inhibition at 10 µM in series [4] (setting [6]) is 60.2%.

The term melting point denotes the temperature of the solid-liquid transition. Regarding `COC(=O)c1c(SC)cc(-c2ccc(Br)cc2)c2c1-c1cn(-c3ccccc3)nc1CC2` [compound 1, methyl 6-(4-bromophenyl)-8-(methylthio)-2-phenyl-4,5-dihydro-2H-benzo[e]indazole-9-carboxylate], the melting point is 164 to 166 °C. Moreover, the inhibition at 10 µM in series [4] came to 9.2%.

`COC(=O)c1c(SC)cc(-c2ccc(Cl)cc2)c2c1-c1cn(-c3ccccc3)nc1CC2` [compound 2, methyl 6-(4-chlorophenyl)-8-(methylthio)-2-phenyl-4,5-dihydro-2H-benzo[e]indazole-9-carboxylate] showed a melting point of 159 to 162 °C. The inhibition at 10 µM in series [4] (setting [6]) worked out at 8%.

`COC(=O)c1c(SC)cc(-c2ccc(OC)cc2)c2c1-c1cn(-c3ccccc3)nc1CC2` [compound 3, methyl 6-(4-methoxyphenyl)-8-(methylthio)-2-phenyl-4,5-dihydro-2H-benzo[e]indazole-9-carboxylate] returned a melting point of 172 to 174 °C. Also, the inhibition at 10 µM in series [4] (setting [6]) was determined as 8.43%.

Molecule `COC(=O)c1c(SC)cc(-c2ccc3ccccc3c2)c2c1-c1cn(-c3ccccc3)nc1C2` [compound 13, Methyl 5-(methylthio)-7-(naphthalen-2-yl)-2-phenyl-2,8-dihydroindeno[2,1-c]pyrazole-4-carboxylate] came in with a melting point of 235 to 237 °C.

The values are drawn from US9096539B2, “Substituted 4,5-dihydro-2H-benzo[e]indazole-9-carboxylates for the treatment of diabetes and related disorders” (Council of Scientific & Industrial Research, priority 2012, dated 2015).
